According to PMC6193536 (Bioorganic & medicinal chemistry letters, 2018):
Where two headings read alike, the source gives them in different places.

What was measured:
[1] = target: T1, PfPKG (Plasmodium falciparum, UniProt Q8I719); settings: data unpublished
[2] = system: Plasmodium falciparum; assay: hypoxanthine incorporation assay; format: cell-based
[3] = system: panel of human kinases
[4] = target: T1, PfPKG; settings: cited from earlier work
[5] = system: Plasmodium falciparum; settings: cited from earlier work

T1 sequence (Q8I719 whole entry): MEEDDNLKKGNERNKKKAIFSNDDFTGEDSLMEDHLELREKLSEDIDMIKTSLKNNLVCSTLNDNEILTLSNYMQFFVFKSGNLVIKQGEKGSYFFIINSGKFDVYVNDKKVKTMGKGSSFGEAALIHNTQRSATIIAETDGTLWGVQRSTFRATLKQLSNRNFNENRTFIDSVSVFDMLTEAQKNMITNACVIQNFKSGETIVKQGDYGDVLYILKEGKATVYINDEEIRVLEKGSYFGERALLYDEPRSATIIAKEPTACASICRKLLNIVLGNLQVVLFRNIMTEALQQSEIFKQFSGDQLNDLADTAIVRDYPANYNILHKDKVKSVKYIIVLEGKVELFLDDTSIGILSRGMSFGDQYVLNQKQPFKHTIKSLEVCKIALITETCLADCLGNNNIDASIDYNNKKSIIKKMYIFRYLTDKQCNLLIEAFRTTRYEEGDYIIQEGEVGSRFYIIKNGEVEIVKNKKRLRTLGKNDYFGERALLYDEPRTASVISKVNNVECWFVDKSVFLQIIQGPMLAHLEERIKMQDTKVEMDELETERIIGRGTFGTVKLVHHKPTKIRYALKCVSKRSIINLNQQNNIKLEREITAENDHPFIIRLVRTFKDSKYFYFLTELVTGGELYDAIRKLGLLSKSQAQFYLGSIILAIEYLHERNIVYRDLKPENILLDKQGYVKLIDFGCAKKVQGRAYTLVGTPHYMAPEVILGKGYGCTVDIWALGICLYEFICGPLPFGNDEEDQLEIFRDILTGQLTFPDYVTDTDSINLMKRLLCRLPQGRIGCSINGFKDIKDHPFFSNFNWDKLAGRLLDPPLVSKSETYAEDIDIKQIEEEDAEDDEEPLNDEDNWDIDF

With `CN1CCC(c2cc(-c3ccncc3)c(-c3ccc(F)cc3)[nH]2)CC1` [compound 1] the “potency in biochemical assay against PfPKG” value [1] was “low nanomolar potencies”, the “potency in HXI cell viability assay” value ([2]; data unpublished) was “moderate potency” and the “kinase selectivity (other human kinases)” value [3] was “poor kinase selectivity”.

In the case of `CN(C)Cc1ccn2c(-c3ccnc(N)n3)c(-c3ccc(F)cc3)nc2c1` [compound 2], the “potency in biochemical assay against PfPKG” value [4] is given as “low nanomolar potencies” and the “potency in HXI cell viability assay” value [5] is given as “moderate potency”.

For `CN1CCC(c2nc(-c3ccc(F)c(NS(C)(=O)=O)c3)c(-c3ccnc(NCC4CC4)n3)s2)CC1` [compound 23], the “improvement in cellular potency over compound 1” value ([2]; versus compound 1) was 4 fold.
